# Results reported in patent US9145405B2, “Oxadiazole compound and preparation method thereof, pharmaceutical composition and use thereof” (SHANGHAI JIAO TONG UNIVERSITY, priority 2011, dated 2015).
# How the values were obtained:
# Cox_B3 virus = assay: Anti-Cox_B3 test: inhibition of cytopathic effect (CPE) in infected Vero cells, Reed-Muench; assay type: cell-based; conditions: Cox_B3 virus in Vero cells, CPE, Reed-Muench method; read-out: IC50 (half-inhibitory concentration for viruses)
# Description: The present examples verifies experimental results of anti-Cox_B3 of the compounds 1-137of the present invention, Pleconaril, 3-[3,5-dimethyl-4-[5-(3-methy-1,2-oxazolyl)propoxy]phenyl]-5-(trifluonomethyl) -1,2,4-oxadiazole is used as positive control.
# Vero cells = assay: Toxicity (half toxic concentration) in the anti-Cox_B3 test on Vero cells; assay type: cell-based; conditions: Vero cells; Cox_B3
IC50 (Cox_B3 virus) [µg/mL],Structure (SMILES),TC50 (half of the toxic concentration) (Vero cells) [µg/mL]
0.051,"Cc1nc(-c2ccc(OCCOc3c(C)cc(-c4noc(C(F)(F)F)n4)cc3C)cc2)no1 [Compound 111, 3-[3,5-dimethyl-4-[2-[4-(5-methyl-1,2,4-oxadiazole-3-yl)phenoxyl]ethoxyl]phenyl]-5-(trifluoromethyl)-1,2,4-oxadiazole]",38.21
0.036,"Cc1nc(-c2ccc(OCCOc3c(C)cc(-c4noc(C(F)(F)F)n4)cc3C)nc2)no1 [Compound 113, 2-[2-[2,6-dimethyl-4-[5-(trifluoromethyl)-1,2,4-oxadiazole-3-yl]phenoxyl]ethoxyl]-5-(5-methyl-1,2,4-oxadiazole-3-yl)-pyridine]",35.22
0.038,"Cc1cc(-c2noc(C(F)(F)F)n2)cc(C)c1OCCOc1ccc(-c2noc(C(F)(F)F)n2)cn1 [Compound 114, 2-[2-[2,6-dimethyl-4-[5-(trifluoromethyl)-1,2,4-oxadiazole-3-yl]phenoxyl]ethoxyl]-5-[5-(trifluoromethyl)-1,2,4-oxadiazole-3-yl]-pyridine]",36.32
0.042,"Cc1nc(-c2ccc(OCCCOc3c(C)cc(-c4noc(C(F)(F)F)n4)cc3C)nc2)no1 [Compound 119, 2-[3-[2,6-dimethyl-4-[5-(trifluoromethyl)-1,2,4-oxadiazole-3-yl]phenoxyl]propoxy]-5-(5-methyl-1,2,4-oxadiazole-3-yl]-pyridine]",36.28

# Second part, the compound before the results:
Structure (SMILES),IC50 (Cox_B3 virus) [µg/mL],TC50 (half of the toxic concentration) (Vero cells) [µg/mL]
"Cc1cc(-c2noc(C(F)(F)F)n2)cc(C)c1OCCOc1ccc(-c2noc(C(F)(F)F)n2)cc1 [Compound 112, 3-[3,5-dimethyl-4-[2-[4-[5-(trifluoromethyl)-1,2,4-oxadiazole-3-yl]phenoxyl]ethoxyl]phenyl]-5-(trifluoromethyl)-1,2,4-oxadiazole]",0.032,34.98
"Cc1nc(-c2cnc(OCCOc3c(C)cc(-c4noc(C(F)(F)F)n4)cc3C)c(F)c2)no1 [Compound 115, 2-[2-[2,6-dimethyl-4-[5-(trifluoromethyl)-1,2,4-oxadiazole-3-yl]phenoxyl]ethoxyl]-3-fluoro-5-(5-methyl-1,2,4-oxadiazole-3-yl)-pyridine]",0.037,37.55
"Cc1cc(-c2noc(C(F)(F)F)n2)cc(C)c1OCCOc1ncc(-c2noc(C(F)(F)F)n2)cc1F [Compound 116, 2-[2-[2,6-dimethyl-4-[5-(trifluoromethyl)-1,2,4-oxadiazole-3-yl]phenoxyl]ethoxyl]-3-fluoro-5-[5-(trifluoromethyl)-1,2,4-oxadiazole-3-yl]-pyridine]",0.034,39.21
"Cc1nc(-c2ccc(OCCCOc3c(C)cc(-c4noc(C(F)(F)F)n4)cc3C)cc2)no1 [Compound 117, 3-[3,5-dimethyl-4-[3-[4-(5-methyl-1,2,4-oxadiazole-3-yl]phenoxyl]propoxy]phenyl]-5-(trifluoromethyl)-1,2,4-oxadiazole]",0.033,33.28
"Cc1cc(-c2noc(C(F)(F)F)n2)cc(C)c1OCCCOc1ccc(-c2noc(C(F)(F)F)n2)cc1 [Compound 118, 3-[3,5-dimethyl-4-[3-[4-[5-(trifluoromethyl)-1,2,4-oxadiazole-3-yl]phenoxyl]propoxy]phenyl]-5-(trifluoromethyl)-1,2,4-oxadiazole]",0.048,37.21
"Cc1nc(-c2cnc(OCCCOc3c(C)cc(-c4noc(C(F)(F)F)n4)cc3C)c(F)c2)no1 [Compound 121, 2-[3-[2,6-dimethyl-4-[5-(trifluoromethyl)-1,2,4-oxadiazole-3-yl]phenoxyl]propoxy]-3-fluoro-5-(5-methyl-1,2,4-oxadiazole-3-yl)-pyridine]",0.039,36.17
